From patent publication US8778974B2, “Trisubstituted 1,2,4 triazoles” (Janssen Pharmaceutica NV, priority 2008, dated 2014)

Tests used:
[1] = target: T1, hα7-wt nAChR-expressing GH4Cl cells (Homo sapiens, UniProt P36544); test: Patch-clamp current recording (whole-cell), potentiation of choline 1 mM response, PAM type; assay type: cell-based; parameters: key to Pam type: Type 0 compounds minimally enhance the effect size of the current elicited by 1 mM choline.; Type 1 compounds enhance the effect size of the current elicited by 1 mM choline but minimally alter the kinetics of the receptor.; Type 2 compounds enhance the effect size of the current elicited by 1 mM choline while reducing the rate and/or the extent of desensitization.; Type 3 compounds enhance the effect size of the current elicited by 1 mM choline. When tested at higher concentrations up to 10 μM they completely inhibit desensitization, in particular a 1 mM choline application of 250 milliseconds.; Type 4 compounds allow for an initial desensitization of the receptor followed by a re-opening of the receptor during agonist application; conditions: for EC50: according to Ex. D.2, "<5" = no top plateau reached at maximal concentration, read-out: Potency (pEC50) (converted); for Pam type: patch-clamp current recording, 1 mM choline
T1 construct: expressed in transfected cells
Description: The compounds of the present invention are classified as type 1-4, based on qualitative kinetic properties, as determined by whole-cell voltage-clamp recordings. This classification is based on the effect of an α7 PAM compound, as described hereinbefore, on the signal elicited by an agonist application. In particular, said agonist is choline at a concentration of 1 mM. In a preferred experimental setting, said α7 PAM compound and choline are simultaneously applied to the cell, as described hereinafter. Desensitization is defined as the closure of the receptor upon activation during the application of the agonist in whole-cell voltage-clamp electrophysiology measurements seen as the reduction of the […] current after initial activation by the agonist.
The definition of the PAM types 1-4 is described hereinafter: • Type 0 compounds minimally enhance the effect size of the current elicited by 1 mM choline. • Type 1 compounds enhance the effect size of the current elicited by 1 mM choline but minimally alter the kinetics of the receptor. In particular, the rate and the extent of desensitization, elicited by the agonist, is not affected. The compound-modulated response to 1 mM choline, therefore, is a close to linear scaling of the 1 mM choline response in absence of the α7 PAM compound. • Type 2 compounds enhance the effect size of the current elicited by 1 mM choline while reducing the rate and/or the extent of desensitization. • Type 3 compounds enhance the effect size of the current elicited by 1 mM choline. […] At low-potency concentrations of the α7 PAM compound, the agonist-induced activation, which is followed by desensitization, can still be separated from the compound-induced re-opening as an initial inward current-maximum. At higher potency concentrations of the α7 PAM compound, the re-opening occurs faster than the closure due to desensitization so that the initial current-maximum disappears.
Patch-clamp Current Recording
Patch-clamp recording from mammalian cells has provided a powerful means of assessing the function of membrane-bound proteins thought to be subunits of ligand-gated ion channels. Activation of such proteins by endogenous or exogenous ligands cause opening of a pore associated with the receptor through which ions flow down their electrochemical gradient. In the case of the hα7-wt nAChR-expressing GH4Cl recombinant cell line the preferential permeability to calcium of this receptor means that calcium flows into the cell upon activation by ACh, choline and other nicotinic ligands giving rise to a calcium current. Since this receptor rapidly desensitizes in the presence of agonist it is important an application system is used which is capable of very rapid switching of solutions (<100 ms) to prevent partial or full desensitisation of receptor responses coincident with the time of agonist application. Consequently, a second convenient technique to assess the enhancement of nicotinic efficacy is patch-clamp recording from hα7-wt nAChR-expressing GH4Cl cells coupled with a rapid-application system.
• a) Assay buffers • The external recording solution consisted of 152 mM NaCl, 5 mM KCl, 1 mM MgCl2, 1 mM Calcium, 10 mM HEPES; pH 7.3. The internal recording solution consisted of 140 mM CsCl, 10 mM HEPES, 10 mM EGTA, 1 mM MgCl2, pH 7.3. • b) Patch-clamp recording was carried out using a Patch-clamp amplifier (Multiclamp 700A, Axon Instruments, Calif., USA). hα7-wt nAChR-expressing GH4Cl cells were patch-clamp in the whole cell configuration (Hamill et al, 1981) with a borosilicate glass electrode of 1.5-3 MΩ tip resistance when filled with the internal recording solution. Recordings were made on cells with membrane resistance >500 MΩ and more preferably 1GΩ and series resistance <15 MΩ with at least 60% series resistance compensation. […]

T1 sequence (P36544 23-502): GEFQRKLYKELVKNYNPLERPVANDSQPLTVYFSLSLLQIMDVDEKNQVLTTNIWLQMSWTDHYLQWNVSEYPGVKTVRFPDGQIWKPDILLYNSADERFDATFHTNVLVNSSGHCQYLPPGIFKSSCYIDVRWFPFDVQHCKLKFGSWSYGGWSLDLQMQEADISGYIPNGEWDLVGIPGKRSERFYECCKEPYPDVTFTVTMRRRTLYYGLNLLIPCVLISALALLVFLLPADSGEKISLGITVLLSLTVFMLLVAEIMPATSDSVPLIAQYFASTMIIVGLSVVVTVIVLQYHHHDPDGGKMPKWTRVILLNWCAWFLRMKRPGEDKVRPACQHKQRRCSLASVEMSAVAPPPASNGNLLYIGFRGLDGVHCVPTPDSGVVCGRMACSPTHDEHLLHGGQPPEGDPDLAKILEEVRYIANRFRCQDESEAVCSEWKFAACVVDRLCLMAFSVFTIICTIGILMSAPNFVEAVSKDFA

melting point [°C]	Compound	EC50 [1] [nM]	Pam type [1]
195.8	CN(C)C(=O)CCc1nc(Nc2ccc3c(c2)OC(F)(F)O3)nn1-c1cccnc1Cl [E118]	692	–
141.1	Cc1cncc(-n2nc(Nc3ccc4c(c3)OC(F)(F)O4)nc2CCC(=O)N(C)C)c1 [E119]	107	4
154.6	CC[C@H](O)Cc1nc(Nc2cccc(Cl)c2)nn1-c1cc(C)nc(C)c1 [E129]	245	2
168	CCc1cc(-n2nc(Nc3ccc(F)c(F)c3)nc2C[C@H](C)O)ccn1 [E131]	1380	2
180.6	CC[C@H](O)Cc1nc(Nc2ccc(F)c(F)c2)nn1-c1cc(C)nc(C)c1 [E132]	240	2
156.2	CCc1cc(-n2nc(Nc3cc(OC)cc(C(F)(F)F)c3)nc2C[C@H](C)O)ccn1 [E133]	363	4
175.8	CC[C@@H](O)Cc1nc(Nc2ccc(F)c(F)c2)nn1-c1ccnc(C)c1 [E134]	1050	2
196.3	COc1cc(Nc2nc(C[C@H](C)O)n(-c3ccnc(C)c3)n2)cc(C(F)(F)F)c1 [E135]	550	4
174.1	CC[C@H](O)Cc1nc(Nc2cc(OC)cc(C(F)(F)F)c2)nn1-c1ccnc(C)c1 [E137, (alphaS)-alpha-Ethyl-3-[[3-methoxy-5-(trifluoromethyl)phenyl]amino]-1-(2-methyl-4-pyridinyl)-1H-1,2,4-triazole-5-ethanol]	105	4
169.4	CCc1cc(-n2nc(Nc3ccc(F)c(F)c3)nc2C[C@@H](O)CC)ccn1 [E138]	295	2
126.7	CC[C@H](O)Cc1nc(Nc2cccc(Cl)c2)nn1-c1ccnc(C)c1 [E139]	324	2
127.5	CC[C@H](O)Cc1nc(Nc2ccc(F)c(F)c2)nn1-c1ccc(C)nc1 [E140]	1620	2
154.7	CC[C@H](O)Cc1nc(Nc2cc(OC)cc(C(F)(F)F)c2)nn1-c1ccc(C)nc1 [E142]	182	4
137.5	COc1cc(Nc2nc(C[C@H](C)O)n(-c3ccc(C)nc3)n2)cc(C(F)(F)F)c1 [E143]	912	4
145.5	COc1cc(Nc2nc(C[C@H](C)O)n(-c3cccnc3)n2)cc(C(F)(F)F)c1 [E144]	2950	–
144.2	CC[C@H](O)Cc1nc(Nc2ccc(F)c(F)c2)nn1-c1cccnc1 [E145]	2450	–
135.4	COc1ccc(-n2nc(Nc3cc(OC)cc(C(F)(F)F)c3)nc2C[C@H](C)O)cc1 [E146]	~363	–
144.1	CC[C@H](O)Cc1nc(Nc2ccc(F)c(F)c2)nn1-c1cccc(OC)c1 [E149]	1380	–
248.8	Cc1cc(-n2nc(Nc3cccc(Cl)c3F)nc2CC(=O)NC2CC2)cc(C)n1 [E150]	417	2
234	Cc1cc(-n2nc(Nc3cccc(Cl)c3F)nc2CC(=O)NC2CCC2)cc(C)n1 [E152]	245	2
231.4	CCNC(=O)Cc1nc(Nc2cccc(Cl)c2F)nn1-c1cc(C)nc(C)c1 [E153, 3-[(3-chloro-2-fluorophenyl)amino]-1-(2,6-dimethyl-4-pyridinyl)-N-ethyl-1H-1,2,4-triazole-5-acetamide]	562	2
248.3	Cc1cc(-n2nc(Nc3ccc4c(c3)OC(F)(F)O4)nc2CC(=O)NC2CC2)c(C)cn1 [E160]	2140	2
